Legend:
Assay type in all cases: biochemical
human JAK2 (aa 826-1132) = molecular target: T1, human JAK2 (aa 826-1132) (Homo sapiens, UniProt O60674); experiment: In vitro JAK kinase assay (TR-FRET), JAK2; settings: catalytic domain GST-fusion; ATP 0.2 μM; poly (GT)-Biotin 20 nM; 30 minutes at room temperature
T1 construct: JAK2 (aa 826-1132); GST (N); purchased Carna Biosciences; host or cells: baculovirus expression system
Protocol: (§1) Compounds were screened for their ability to inhibit JAK1, JAK2 and JAK3 using the assays as indicated below.
(§2) The enzymatic activity was assayed using as substrate a biotinylated peptide, poly (GT)-Biotin (CisBio). […] The degree of phosphorylation was detected by TR-FRET (time-resolved fluorescence energy transfer).
(§3) The enzymatic reactions took place for 30 minutes at room temperature. […] Incubate for 3 h and read on Victor 2V spectrofluorometer (PerkinElmer) set to read fluorescence resonance energy transfer.

human JAK3 (aa 795-1124) = molecular target: T2, human JAK3 (aa 795-1124) (Homo sapiens, UniProt P52333); experiment: In vitro JAK kinase assay (TR-FRET), JAK3; settings: catalytic domain GST-fusion; ATP 0.6 μM; poly (GT)-Biotin 140 nM; 30 minutes at room temperature
T2 construct: JAK3 (aa 795-1124); GST (N); purchased Carna Biosciences; host or cells: baculovirus expression system
Protocol: as §1, §2, §3

human JAK1 (aa 850-1154) = molecular target: T3, human JAK1 (aa 850-1154) (Homo sapiens, UniProt P23458); experiment: In vitro JAK kinase assay (TR-FRET), JAK1; settings: catalytic domain GST-fusion; ATP 3 μM; poly (GT)-Biotin 60 nM; 30 minutes at room temperature
T3 construct: human JAK1 (aa 850-1154); GST (N); purchased Carna Biosciences; host or cells: baculovirus expression system
Protocol: as §1, §2, §3

T3 sequence (P23458 850-1154): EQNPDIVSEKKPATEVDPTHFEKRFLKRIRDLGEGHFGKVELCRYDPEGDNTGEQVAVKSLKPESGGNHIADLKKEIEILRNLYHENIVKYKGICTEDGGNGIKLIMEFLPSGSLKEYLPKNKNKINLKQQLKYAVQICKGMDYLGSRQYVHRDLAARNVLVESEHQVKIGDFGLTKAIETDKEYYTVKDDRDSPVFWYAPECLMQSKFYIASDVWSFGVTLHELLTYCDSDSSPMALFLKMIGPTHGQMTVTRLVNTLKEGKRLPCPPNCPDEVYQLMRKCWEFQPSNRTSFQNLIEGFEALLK
T1 sequence (O60674 826-1132): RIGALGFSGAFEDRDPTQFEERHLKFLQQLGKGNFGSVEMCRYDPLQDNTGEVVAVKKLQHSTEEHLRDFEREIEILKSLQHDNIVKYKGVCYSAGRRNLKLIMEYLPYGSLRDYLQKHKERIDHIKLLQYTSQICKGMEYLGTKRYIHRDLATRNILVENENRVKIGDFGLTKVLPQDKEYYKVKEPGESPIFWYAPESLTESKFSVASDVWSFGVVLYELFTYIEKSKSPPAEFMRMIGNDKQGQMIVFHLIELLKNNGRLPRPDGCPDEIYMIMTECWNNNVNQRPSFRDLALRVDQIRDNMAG
T2 sequence (P52333 795-1124): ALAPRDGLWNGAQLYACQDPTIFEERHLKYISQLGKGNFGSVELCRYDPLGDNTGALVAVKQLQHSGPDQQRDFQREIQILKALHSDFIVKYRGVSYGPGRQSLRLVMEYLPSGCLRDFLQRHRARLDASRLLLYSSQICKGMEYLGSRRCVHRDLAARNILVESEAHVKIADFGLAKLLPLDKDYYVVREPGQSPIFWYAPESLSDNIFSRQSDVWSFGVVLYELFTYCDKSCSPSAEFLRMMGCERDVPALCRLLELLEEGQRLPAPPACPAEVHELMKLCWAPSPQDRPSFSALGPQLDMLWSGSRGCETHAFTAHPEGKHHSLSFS

O=c1[nH]cccc1Nc1ncc2[nH]c(=O)n(C3CCCCC3)c2n1 [Example 14, 9-Cyclohexyl-2-(2-oxo-1,2-dihydropyridin-3-ylamino)-7H-purin-8(9H)-one]
IC50 (human JAK2 (aa 826-1132)): < 0.1 µM
IC50 (human JAK3 (aa 795-1124)): < 0.1 µM
IC50 (human JAK1 (aa 850-1154)): < 0.1 µM

O=c1[nH]cc(C(F)F)cc1Nc1ncc2[nH]c(=O)n(C3CCOCC3)c2n1 [Example 5, 2-(5-(Difluoromethyl)-2-oxo-1,2-dihydropyridin-3-ylamino)-9-(tetrahydro-2H-pyran-4-yl)-7H-purin-8(9H)-one]
IC50 (human JAK2 (aa 826-1132)): < 0.1 µM
IC50 (human JAK3 (aa 795-1124)): < 0.1 µM
IC50 (human JAK1 (aa 850-1154)): < 0.1 µM

O=c1[nH]cncc1Nc1ncc2[nH]c(=O)n(C3CCOCC3)c2n1 [Example 51, 2-(6-Oxo-1,6-dihydropyrimidin-5-ylamino)-9-(tetrahydro-2H-pyran-4-yl)-7H-purin-8(9H)-one]
IC50 (human JAK2 (aa 826-1132)): 0.1 to 1 µM
IC50 (human JAK3 (aa 795-1124)): 0.1 to 1 µM
IC50 (human JAK1 (aa 850-1154)): 0.1 to 1 µM

O=c1[nH]cccc1Nc1nc(N2CCOCC2)c2[nH]c(=O)n(C3CCOCC3)c2n1 [Example 50, 6-Morpholino-2-(2-oxo-1,2-dihydropyridin-3-ylamino)-9-(tetrahydro-2H-pyran-4-yl)-7H-purin-8(9H)-one]
IC50 (human JAK2 (aa 826-1132)): < 0.1 µM
IC50 (human JAK3 (aa 795-1124)): < 0.1 µM
IC50 (human JAK1 (aa 850-1154)): > 1 µM

O=c1[nH]cccc1Nc1ncc2[nH]c(=O)n(C3CCSCC3)c2n1 [Example 12, 2-(2-Oxo-1,2-dihydropyridin-3-ylamino)-9-(tetrahydro-2H-thiopyran-4-yl)-7H-purin-8(9H)-one]
IC50 (human JAK2 (aa 826-1132)): < 0.1 µM
IC50 (human JAK3 (aa 795-1124)): < 0.1 µM
IC50 (human JAK1 (aa 850-1154)): 0.1 to 1 µM

O=c1[nH]nc(Cl)cc1Nc1ncc2[nH]c(=O)n(C3CCOCC3)c2n1 [Example 54, 2-(6-Chloro-3-oxo-2,3-dihydropyridazin-4-ylamino)-9-(tetrahydro-2H-pyran-4-yl)-7H-purin-8(9H)-one]
IC50 (human JAK2 (aa 826-1132)): 0.1 to 1 µM
IC50 (human JAK3 (aa 795-1124)): < 0.1 µM
IC50 (human JAK1 (aa 850-1154)): 0.1 to 1 µM

O=c1[nH]cccc1Nc1ncc2[nH]c(=O)n([C@@H]3CC=Cc4ccccc43)c2n1 [Example 31, (R)-9-(1,2-Dihydronaphthalen-1-yl)-2-(2-oxo-1,2-dihydropyridin-3-ylamino)-7H-purin-8(9H)-one]
IC50 (human JAK2 (aa 826-1132)): < 0.1 µM
IC50 (human JAK3 (aa 795-1124)): < 0.1 µM
IC50 (human JAK1 (aa 850-1154)): 0.1 to 1 µM

O=c1[nH]cccc1Nc1ncc2c(n1)n(C1CCOCC1)c(=O)n2CCO [Example 46, 7-(2-Hydroxyethyl)-2-(2-oxo-1,2-dihydropyridin-3-ylamino)-9-(tetrahydro-2H-pyran-4-yl)-7H-purin-8(9H)-one]
IC50 (human JAK2 (aa 826-1132)): < 0.1 µM
IC50 (human JAK3 (aa 795-1124)): < 0.1 µM
IC50 (human JAK1 (aa 850-1154)): 0.1 to 1 µM

N#C[C@@H]1CCCC[C@H]1n1c(=O)[nH]c2cnc(Nc3ccc[nH]c3=O)nc21 (relative stereo) [Example 23, trans-2-(8-Oxo-2-(2-oxo-1,2-dihydropyridin-3-ylamino)-7H-purin-9(8H)-yl)cyclo hexanecarbonitrile]
IC50 (human JAK2 (aa 826-1132)): < 0.1 µM
IC50 (human JAK3 (aa 795-1124)): < 0.1 µM
IC50 (human JAK1 (aa 850-1154)): 0.1 to 1 µM

O=c1[nH]cccc1Nc1nc2c(cc1F)[nH]c(=O)n2C1CCOCC1 [Example 49, 6-Fluoro-5-(2-oxo-1,2-dihydropyridin-3-ylamino)-3-(tetrahydro-2H-pyran-4-yl)-1H-imidazo[4,5-b]pyridin-2(3H)-one]
IC50 (human JAK2 (aa 826-1132)): < 0.1 µM
IC50 (human JAK3 (aa 795-1124)): < 0.1 µM
IC50 (human JAK1 (aa 850-1154)): 0.1 to 1 µM

O=c1[nH]cccc1Nc1ncc2[nH]c(=O)n([C@H]3CC[C@@H](n4cncn4)CC3)c2n1 [Example 22, 9-((1s,4s)-4-(1H-1,2,4-Triazol-1-yl)cyclohexyl)-2-(2-oxo-1,2-dihydropyridin-3-ylamino)-7H-purin-8(9H)-one]
IC50 (human JAK2 (aa 826-1132)): < 0.1 µM
IC50 (human JAK3 (aa 795-1124)): < 0.1 µM
IC50 (human JAK1 (aa 850-1154)): 0.1 to 1 µM

C[C@H](c1ncc(F)cn1)n1c(=O)[nH]c2cnc(Nc3cnc[nH]c3=O)nc21 [Example 52, (R)-9-(1-(5-Fluoropyrimidin-2-yl)ethyl)-2-(6-oxo-1,6-dihydropyrimidin-5-ylamino)-7H-purin-8(9H)-one]
IC50 (human JAK2 (aa 826-1132)): < 0.1 µM
IC50 (human JAK3 (aa 795-1124)): 0.1 to 1 µM
IC50 (human JAK1 (aa 850-1154)): > 1 µM

O=c1[nH]cccc1Nc1ncc2[nH]c(=O)n([C@@H]3CCCC[C@@H]3CO)c2n1 (relative stereo) [Example 21, 9-(cis-2-(Hydroxymethyl)cyclohexyl)-2-(2-oxo-1,2-dihydropyridin-3-ylamino)-7H-purin-8(9H)-one]
IC50 (human JAK2 (aa 826-1132)): < 0.1 µM
IC50 (human JAK3 (aa 795-1124)): < 0.1 µM
IC50 (human JAK1 (aa 850-1154)): 0.1 to 1 µM

CS(=O)(=O)C[C@H]1CC[C@H](n2c(=O)[nH]c3cnc(Nc4ccc[nH]c4=O)nc32)CC1 [Example 39, 9-((1r,4r)-4-(Methylsulfonylmethyl)cyclohexyl)-2-(2-oxo-1,2-dihydropyridin-3-ylamino)-7H-purin-8(9H)-one]
IC50 (human JAK2 (aa 826-1132)): < 0.1 µM
IC50 (human JAK3 (aa 795-1124)): 0.1 to 1 µM
IC50 (human JAK1 (aa 850-1154)): 0.1 to 1 µM

O=c1[nH]cccc1Nc1ncc2[nH]c(=O)n(C3CCOCC3)c2n1 [Example 1, 2-(2-Oxo-1,2-dihydropyridin-3-ylamino)-9-(tetrahydro-2H-pyran-4-yl)-7H-purin-8(9H)-one]
IC50 (human JAK2 (aa 826-1132)): < 0.1 µM
IC50 (human JAK3 (aa 795-1124)): < 0.1 µM
IC50 (human JAK1 (aa 850-1154)): 0.1 to 1 µM

From US20140170110A1, “PYRIDIN-2(1H)-ONE DERIVATIVES USEFUL AS MEDICAMENTS FOR THE TREATMENT OF MYELOPROLIFERATIVE DISORDERS, TRANSPLANT REJECTION, IMMUNE-MEDIATED AND INFLAMMATORY DISEASES” (ALMIRALL, S.A., priority 2011, published 2014)
